Assay results: patent US7109193B2, “Tricyclic diazepines tocolytic oxytocin receptor antagonists” (Wyeth, priority 2001, dated 2006)

Target: T1, human oxytocin receptor (Homo sapiens, UniProt P30559)
T1 construct: host or cells: CHO cells (pcDNA3.1 vector)
T1 sequence (P30559 1-389): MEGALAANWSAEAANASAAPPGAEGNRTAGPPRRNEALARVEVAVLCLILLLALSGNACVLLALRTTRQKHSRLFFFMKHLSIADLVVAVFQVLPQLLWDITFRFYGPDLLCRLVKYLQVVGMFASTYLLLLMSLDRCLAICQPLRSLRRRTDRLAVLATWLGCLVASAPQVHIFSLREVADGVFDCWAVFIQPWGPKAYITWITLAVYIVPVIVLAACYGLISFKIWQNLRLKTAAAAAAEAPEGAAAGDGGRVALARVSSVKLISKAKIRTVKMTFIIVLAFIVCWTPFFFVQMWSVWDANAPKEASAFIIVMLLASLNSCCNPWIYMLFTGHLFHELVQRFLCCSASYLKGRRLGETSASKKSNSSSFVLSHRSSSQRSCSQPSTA
Test: Oxytocin binding in Chinese Hamster Ovary cell membranes expressing human oxytocin receptors
Conditions: 100 nM, CHO cell membranes, [3H]oxytocin, values without parentheses; for inhibition at 0.1 µM: read-out: OT % inhibition @ 100% nM
Procedure: Oxytocin Binding in Chinese Hamster Ovary Cell Membranes Expressing Human Oxytocin Receptors
The trypsin is removed by aspiration and the cells dislodged by tapping. Cell Culture medium (e.g. 30 mL for 1:30 split) is immediately added and mixed well to inactivate trypsin. 1 mL of detached cells is added to new culture flasks containing fresh Cell Culture medium (e.g. into 25 mL per T-150 flask), and mixed gently. The cells are incubated at 37° C. in 5% CO2. The medium is changed at 3 to 4 days interval (or as appropriate). […] All steps are done under sterile conditions. B. Membrane Preparation: The cells are washed twice gently with Hank's Balanced Salt solution (e.g., use 10 mL per T-150 flask). […] The contents are transferred to centrifuge tubes (50 mL size) kept in ice bath. All subsequent steps are done at 4° C. The tubes are centrifuged at 300×g for 15 min (1380 rpm on SORVAL, Model RT6000D, using rotor for 50 mL tubes). The supernatant is discarded and the cells suspended in homogenizing buffer (10 mM Tris-HCl containing 0.25 M sucrose and 1 mM EDTA, pH 7.4) ensuring that the volume of the buffer is about ten times the volume of the cell pellet. The cells are pooled into a centrifuge tube (50 mL) and homogenized with a Polytron at setting 6 for 10 sec. The homogenate is transferred into a Potter-Elvjehm homogenizer and homogenized with 3 strokes. The homogenate is centrifuged at 1500×g for 10 min at 4° C. (3100 rpm using SORVAL, model RT6000D, using rotor for 50 mL tubes). The pellet is discarded. The supernatant is centrifuged at 100,000×g for 60 min. at 4° C. (Beckman L8-80M ultracentrifuge; spin at 37,500 rpm with rotor type 70 Ti for 50 mL tubes; 38,000 rpm with type 80Ti for 15 mL tubes; or 35,800 rpm with rotor type 45Ti). The supernantant is discarded and the pellet suspended in 3 to 4 mL of Tris buffer (50 mM TRIS-HCl, pH 7.4). The protein content is estimated by the Bradford or Lowry method. The volume of the membrane suspension is adjusted with the membrane buffer (50 mM Tris-HCl containing 0.1% BSA and 0.1 mM PMSF) to give 3.0 mg/mL (or as appropriate) of protein. The membranes are aliquoted and stored at −70° C. C. Radioligand Binding Assay: In wells of a 96-well format microtiter plate, is added 90, 110 or 130 μL (to make up a final volume of 200 μL) of assay buffer containing 50 mM of Tris-HCl (pH 7.4), […], 1 mg % aprotinin, 1 mg % leupeptin, 2 mg % 1,10-phenanthroline, 10 mg % trypsin inhibitor, and 0.1 mM PMSF. The inhibitors are added on the day of the experiment. The components are mixed at room temperature, and then kept in ice bath following adjustment of the pH to 7.4. […] For oxytocin and other peptide ligands, 20 μL of 50% DMSO is added and the assay buffer volume is adjusted accordingly. To each well is added 50 μL of frozen membrane suspension thawed immediately prior to use and diluted in assay buffer to the required concentration (equivalent to 25 to 50 μg of protein/well as needed). 20 μL of 8 nM [^3H]oxytocin in the assay buffer, prepared just before use is added and incubated at room temperature for 60 min. shaking the plate on a mechanical shaker for the first 15 min. The incubation is stopped by rapid filtration of the plate contents followed by washing with ice-cold buffer (50 mM Tris-HCl, pH 7.4) using a cell harvester (Tomtek and Printed filtermat-B filter paper). The filter paper is thoroughly dried (7–12 min. in a microwave oven) and impregnated with MeltiLex B/H melt-on scintillation wax sheets and the radioactivity counted in a betaplate scintillation counter.
Binding data is either reported as percent inhibition at a certain concentration or if an IC50 was calculated, as a nanomolar concentration.

Row | Structure (SMILES) | inhibition at 0.1 µM | OT % inhibition @ 100% nM
1 | O=C(NCCCn1ccnc1)c1ccc2n1Cc1ccccc1N(C(=O)c1ccc(-c3cccc4ccccc34)cc1Cl)C2 [Example 134, 10-[2-Chloro-4-(1-naphthyl)benzoyl]-N-[3-(1H-imidazol-1-yl)propyl]-10,11-dihydro-5H-pyrrolo[2,1-c][1,4]benzodiazepine-3-carboxamide] | 15% | 
2 | COc1ccccc1-c1ccc(C(=O)N2Cc3ccc(C(=O)N4CCC(N5CCCCC5)CC4)n3Cc3ccccc32)cc1C [Example 112, {10-[(2-Methyl-2′-methoxy[1,1′-biphenyl]-4-yl)carbonyl]-10,11-dihydro-5H-pyrrolo[2,1-c][1,4]benzodiazepin-3-yl}[4-(1-piperidinyl)-1-piperidinyl]methanone] | 89% | 
3 | COc1ccccc1-c1ccc(C(=O)N2Cc3ccc(C(=O)NCCN4CCCCC4)n3Cc3ccccc32)cc1 [Example 152, 10-[(2′-Methoxy[1,1′-biphenyl]-4-yl)carbonyl]-N-[2-(1-piperidinyl)ethyl]-10,11-dihydro-5H-pyrrolo[2,1-c][1,4]benzodiazepine-3-carboxamide] | 63% | 
4 | COc1cc(C(=O)N2Cc3ccc(C(=O)NCCCn4ccnc4)n3Cc3ccccc32)ccc1-c1ccccc1C [Example 128, N-[3-(1H-Imidazol-1-yl)propyl]-10-[(2-methoxy-2′-methyl[1,1′-biphenyl]-4-yl)carbonyl]-10,11-dihydro-5H-pyrrolo[2,1-c][1,4]benzodiazepine-3-carboxamide] | 43% | 
5 | Cc1cc(C(=O)N2Cc3ccc(C(=O)N(CCCN(C)C)CCCN(C)C)n3Cc3ccccc32)ccc1-c1ccccc1C(F)(F)F [Example 3, 10-[(2-Methyl-2′-trifluoromethyl-[1,1′-biphenyl]-4-yl)-carbonyl]-10,11-dihydro-5H-pyrrolo[2,1-c][1,4]benzodiazepine-3-carboxylic acid bis-(3-dimethylamino-propyl)-amide] | 37% | 
6 | Cc1ccccc1-c1ccc(C(=O)N2Cc3ccc(C(=O)N4CCC[C@H]4CN4CCCC4)n3Cc3ccccc32)cc1C [Example 260, {10-[(2,2′-Dimethyl[1,1′-biphenyl]-4-yl)carbonyl]-10,11-dihydro-5H-pyrrolo[2,1-c][1,4]benzodiazepin-3-yl}[(2S)-2-(1-pyrrolidinylmethyl)pyrrolidinyl]methanone] |  | 102%
7 | COC(=O)c1ccc2c(c1)N(C(=O)c1ccc(-c3ccccc3C(F)(F)F)c(C)c1)Cc1cccn1C2 [Example 26, Methyl 10-{[2-methyl-2′-trifluoromethyl-[1,1′-biphenyl]-4-yl]carbonyl}-10,11-dihydro-5H-pyrrolo[2,1-c][1.4]benzodiazepine-8-carboxylate] |  | 17%
8 | COc1ccccc1-c1ccc(C(=O)N2Cc3ccc(C(=O)NCCCn4ccnc4)n3Cc3ccccc32)cc1C [Example 123, N-[3-(1H-Imidazol-1-yl)propyl]-10-[(2′-methoxy-2-methyl[1,1′-biphenyl]-4-yl)carbonyl]-10,11-dihydro-5H-pyrrolo[2,1-c][1,4]benzodiazepine-3-carboxamide] | 47% | 
9 | COc1ccccc1-c1ccc(C(=O)N2Cc3ccc(C(=O)N4CCC[C@H]4CN4CCCC4)n3Cc3ccccc32)cc1 [Example 265, {10-[(2′-Methoxy[1,1′-biphenyl]-4-yl)carbonyl]-10,11-dihydro-5H-pyrrolo[2,1-c][1,4]benzodiazepin-3-yl}[(2S)-2-(1-pyrrolidinylmethyl)pyrrolidinyl]methanone] |  | 100%
10 | COc1cc(C(=O)N2Cc3ccc(C(=O)N4CCC[C@H]4CN4CCCC4)n3Cc3ccccc32)ccc1-c1ccccc1C [Example 266, {10-[(2-Methoxy-2′-methyl[1,1′-biphenyl]-4-yl)carbonyl]-10,11-dihydro-5H-pyrrolo[2,1-c][1,4]benzodiazepin-3-yl}[(2S)-2-(1-pyrrolidinylmethyl)pyrrolidinyl]methanone] |  | 97%
11 | COc1cccc(-c2cc(OC)c(C(=O)N3Cc4ccc(C(=O)N5CCC(N6CCCCC6)CC5)n4Cc4ccccc43)cc2Cl)c1 [Example 117, {10-[(6-Chloro-3-methoxy-3′-methoxy[1,1′-biphenyl]-4-yl)carbonyl]-10,11-dihydro-5H-pyrrolo[2,1-c][1,4]benzodiazepin-3-yl}[4-(1-piperidinyl)-1-piperidinyl]methanone] | 70% | 
12 | COc1cc2c(cc1OC)N(C(=O)c1ccc(-c3ccccc3C(F)(F)F)c(C)c1)Cc1ccc(C(=O)N(C)CCCN(C)C)n1C2.Cl [Example 13, N-Methyl-[N-(3-dimethylamino)propyl]-7,8-dimethoxy-10-{[2-methyl-2′-(trifluoromethyl)[1,1′-biphenyl]-4-yl]carbonyl}-10,11-dihydro-5H-pyrrolo[2,1-c][1,4]benzodiazepine-3-carboxamide hydrochloride salt] |  | 33%
13 | CN(C)CCCN(C)C(=O)c1ccc2n1Cc1ccccc1N(C(=O)c1ccc(-c3cccc4ccccc34)cc1Cl)C2 [Example 109, 10-[2-Chloro-4-(1-naphthyl)benzoyl]-N-[3-(dimethylamino)propyl]-N-methyl-10,11-dihydro-5H-pyrrolo[2,1-c][1,4]benzodiazepine-3-carboxamide] | 49% | 
14 | Cc1ccccc1-c1ccc(C(=O)N2Cc3ccc(C(=O)N4CCC(N5CCCCC5)CC4)n3Cc3ccccc32)cc1C [Example 113, {10-[(2-Methyl-2′-methyl[1,1′-biphenyl]-4-yl)carbonyl]-10,11-dihydro-5H-pyrrolo[2,1-c][1,4]benzodiazepin-3-yl}[4-(1-piperidinyl)-1-piperidinyl]methanone] | 97% | 
15 | COc1cccc(-c2ccc(C(=O)N3Cc4ccc(C(=O)N5CCN(CCN(C)C)CC5)n4Cc4ccccc43)cc2C)c1 [Example 199, {4-[2-(Dimethylamino)ethyl]-1-piperazinyl{}10-[(3′-methoxy-2-methyl[1,1′-biphenyl]-4-yl)carbonyl]-10,11-dihydro-5H-pyrrolo[2,1-c][1,4]benzodiazepin-3-yl}methanone] |  | 84%
16 | COc1cc(C(=O)N2Cc3ccc(C(=O)N4CCC(N5CCCC5)CC4)n3Cc3ccccc32)ccc1-c1ccccc1C [Example 142, {10-[(2-Methoxy-2′-methyl[1,1′-biphenyl]-4-yl)carbonyl]-10,11-dihydro-5H-pyrrolo[2,1-c][1,4]benzodiazepin-3-yl}[4-(1-pyrrolidinyl)-1-piperidinyl]methanone] | 83% | 
17 | COc1cc(C(=O)N2Cc3ccc(C(=O)N4CCC(N5CCCCC5)CC4)n3Cc3ccccc32)ccc1-c1cccc2ccccc12 [Example 118, {10-[3-Methoxy-4-(1-naphthyl)-benzoyl]-10,11-dihydro-5H-pyrrolo[2,1-c][1,4]benzodiazepin-3-yl}[4-(1-piperidinyl)-1-piperidinyl]methanone] | 54% | 
